PubChem BioAssay (NCI)
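Method: 48-hour compound exposure of cells in 96-well plates, five concentrations, linear interpolation of endpoints. GI50 is the concentration that inhibits growth by half. TGI denotes the concentration required for complete inhibition of growth.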

What was measured:
Test in all cases: NCI tumour cell line growth inhibition, 48 h; in the data active = GI50 below about 0.43 µM; inactive = the rest
[1] = tested on: NCI-H460 lung
[2] = tested on: RPMI-8226 leukemia
[3] = tested on: U251 CNS
[4] = tested on: UACC-62 melanoma
[5] = tested on: NCI-H522 lung
[6] = tested on: IGROV1 ovarian
[7] = tested on: NCI-H23 lung
[8] = tested on: ACHN renal
[9] = tested on: SR leukemia
[10] = tested on: CAKI-1 renal
[11] = tested on: KM20L2 colon
[12] = tested on: CCRF-CEM leukemia
[13] = tested on: MOLT-4 leukemia
[14] = tested on: SNB-19 CNS
[15] = tested on: EKVX NSCLC
[16] = tested on: OVCAR-3 ovarian
[17] = tested on: SN12C renal
[18] = tested on: HOP-92 NSCLC
[19] = tested on: A498 renal
[20] = tested on: SK-MEL-28 melanoma
[21] = tested on: XF 498 CNS
[22] = tested on: SNB-75 CNS
[23] = tested on: LXFL 529 NSCLC
[24] = tested on: SF-539 CNS
[25] = tested on: SF-268 CNS
[26] = tested on: DMS 114 small cell lung
[27] = tested on: M14 melanoma
[28] = tested on: DMS 273 small cell lung
[29] = tested on: HT29 colon
[30] = tested on: DLD-1 colon
[31] = tested on: NCI-H226 lung
[32] = tested on: SK-OV-3 ovarian
[33] = tested on: HCT-116 colon
[34] = tested on: OVCAR-8 ovarian
[35] = tested on: K-562 leukemia
[36] = tested on: SNB-78 CNS
[37] = tested on: KM12 colon
[38] = tested on: SK-MEL-5 melanoma
[39] = tested on: A549 NSCLC
[40] = tested on: TK-10 renal
[41] = tested on: RXF-631 renal
[42] = tested on: OVCAR-5 ovarian
[43] = tested on: HCT-15 colon
[44] = tested on: MALME-3M melanoma
[45] = tested on: M19-MEL melanoma
[46] = tested on: SW-620 colon
[47] = tested on: 786-0 renal
[48] = tested on: SK-MEL-2 melanoma
[49] = tested on: HOP-62 NSCLC
[50] = tested on: COLO 205 colon
[51] = tested on: RXF 393 renal
[52] = tested on: SF-295 CNS
[53] = tested on: OVCAR-4 ovarian
[54] = tested on: HOP-18 NSCLC
[55] = tested on: HCC-2998 colon
[56] = tested on: LOX IMVI melanoma
[57] = tested on: HL-60(TB) leukemia
[58] = tested on: UO-31 renal

CC(=O)N/C(=C\c1ccc(/C=C(\NC(C)=O)c2nc3ccc(Cl)cc3[nH]2)cc1)c1nc2ccccc2[nH]1
> 100 µM: TGI [1] | TGI [2] | TGI [3] | TGI [4] | TGI [5] | TGI [6] | TGI [7] | TGI [8] | TGI [9] | TGI [10] | TGI [11] | TGI [12] | TGI [13] | TGI [14] | TGI [15] | TGI [16] | TGI [17] | TGI [18] | TGI [19] | TGI [20] | TGI [21] | TGI [22] | TGI [23] | TGI [24] | TGI [25] | TGI [26] | TGI [27] | TGI [28] | TGI [29] | TGI [30] | TGI [31] | TGI [32] | TGI [33] | TGI [34] | TGI [35] | TGI [36] | TGI [37] | TGI [38] | TGI [39] | TGI [40] | TGI [41] | TGI [42] | TGI [43] | TGI [44] | TGI [45] | TGI [46] | TGI [47] | TGI [48] | TGI [49] | TGI [50]

COc1cc(-c2cc(=O)c3cc4c(cc3[nH]2)OCO4)cc(OC)c1OC
inactive: GI50 [51] 22.1 µM | GI50 [52] 32 µM | GI50 [11] > 100 µM | GI50 [16] > 100 µM | GI50 [25] 32.7 µM | GI50 [26] 83.8 µM | GI50 [31] > 100 µM | GI50 [33] 73.7 µM
69 µM: TGI [18]
> 100 µM: TGI [1] | TGI [2] | TGI [3] | TGI [4] | TGI [5] | TGI [6] | TGI [7] | TGI [8] | TGI [9] | TGI [10] | TGI [11] | TGI [12] | TGI [13] | TGI [14] | TGI [15] | TGI [16] | TGI [17] | TGI [20] | TGI [21] | TGI [22] | TGI [23] | TGI [53] | TGI [24] | TGI [25] | TGI [26] | TGI [27] | TGI [54] | TGI [28] | TGI [55] | TGI [29] | TGI [30] | TGI [31] | TGI [32] | TGI [33] | TGI [34] | TGI [35] | TGI [36] | TGI [37] | TGI [56] | TGI [38] | TGI [39] | TGI [40] | TGI [57] | TGI [43] | TGI [44] | TGI [45] | TGI [58] | TGI [46] | TGI [47] | TGI [48] | TGI [50]
60.5 µM: TGI [51]
97.9 µM: TGI [52]
65.2 µM: TGI [49]
